Structures can show the parent of a compound that is named as a salt.
Tests used:
Sprague Dawley rats = assay: Cardiovascular and behavioral effects: ECG changes during i.v. infusion in conscious rats; assay type: in vivo, rat
Experimental: Preparative surgery is performed in Sprague Dawley rats weighing 200–300 gm and anaesthetized with 65 mg/kg (i.p.) pentobarbital. The femoral artery and vein are cannulated using polyethylene (PE)-10 tubing. Prior to surgery, this PE-10 tubing had been annealed to a wider gauge (PE-50) tubing for externalization. The cannulated PE-10/PE-50 tubing is passed through a trocar and exteriorised together with three (lead II) limb ECG leads (see below). The trocar is threaded under the skin of the back and out through a small incision at the mid-scapular region. A ground ECG electrode is inserted subcutaneously using a 20 gauge needle with the lead wire threaded through it. To place the other ECG electrodes, a small incision is made in the anterior chest region over the heart and ECG leads are inserted into the subcutaneous muscle layer in the region of the heart using a 20 guage needle. Other ECG leads are inserted into the subcutaneous muscle layer in the region near the base of the neck and shoulder (right side). The animal is returned to a clean recovery-cage with free access to food and water. The treatment and observational period for each animal commenced after a 24-hour recovery period.
A 15 min observational period is recorded followed by the intravenous infusion regime of the test compound at an initial dose of 2.0 μmol/kg/min (at 1 ml/hr). This rate is doubled every 5 minutes until one of the following effects is observed:
Blood pressure (BP), heart rate (HR) and ECG variables are continuously recorded while behavioral responses are also monitored and the total accumulative drug dose and drug infusion rate at which the response (such as convulsion, piloerection, ataxia, restlessness, compulsive chewing, lip-smacking, wet dog shake etc.) occurred are recorded.
Electrocardiograph (ECG) parameters: PR, QRS, QT1 (peak of T-wave), QT2 (midpoint of T-wave deflection) and hemodynamic parameters: BP and HR are analyzed using the automated analysis function in LabView (National Instruments) with a customized autoanalysis software (Nortran Pharmaceuticals). The infused dose producing 25% from control (D25) for all recorded ECG variables is determined.
Table 2 describes the results of the tests as D25 (micromol/kg) which are the doses required to produce a 25% increase in the ECG parameter measured (ne=not estimated). The increases in P-R interval and QRS interval indicate cardiac sodium channel blockade while the increase in Q-T interval indicates cardiac potassium channel blockade.

CD-1 mice = assay: Assessment of pain blockage: pin prick, mouse tail; assay type: in vivo; conditions: injection into lateral tail vein with tourniquet
Experimental: CD-1 mice (20–30 g) are restrained in an appropriate holder. A tourniquet is placed at the base of the tail and a solution of the test compound (50 μl, 5 mg/ml) is injected into the lateral tail vein. The tourniquet is removed 10 min after the injection. Suitable dilutions of compound solution are used to obtain an ED50 for pain blockade at various times after injection. Pain responses are assessed by pin prick at regular intervals up to 4 hours post injection and the duration of pain blockage is recorded for three animals for each test compound solution. Compounds of the present invention may be evaluated according to the method described.

hH1 Na+ current = biological target: T1, hH1 Na+ current (Homo sapiens, UniProt Q14524); assay: Patch-clamp inhibition of cloned ion channel current in transfected HEK cells: Na; assay type: cell-based; conditions: peak hH1 Na+ current, -100 mV to -30 mV
T1 construct: expressed in transfected cells; host or cells: HEK cells, transient transfection, vector pCDNA3
Experimental: (§1) The relevant cloned ion channels (e.g. cardiac hH1, Kv1.4, Kv1.5, Kv4.2, Kv2.1, HERG etc.) are studied by transient transfection into HEK cells using the mammalian expression vector pCDNA3. Transfections for each channel type are carried out separately to allow individual study of the ion channel of interest. Cells expressing channel protein are detected by cotransfecting cells with the vector pHook-1 (Invitrogen, San Diego, Calif., USA). […] Equal concentrations of individual channel and pHook DNA are incubated with 10× concentration of lipofectAce in Modified Eagle's Medium (MEM, Canadian Life Technologies) and incubated with parent HEK cells plated on 25 mm culture dishes. After 3–4 hours the solution is replaced with a standard culture medium plus 20% fetal bovine serum and 1% antimycotic. Transfected cells are maintained at 37C in an air/5% CO2 incubator in 25 mm Petri dishes plated on glass coverslips for 24–48 hours to allow channel expression to occur. 20 min prior to experiments, cells are treated with beads coated with phOX. After 15 min, excess beads are […] off with cell culture medium and cells which had beads stuck to them are used for electrophysiological tests.
(§2) For whole-cell recording the control pipette filling solution contained (in mM): KCl, 130; EGTA, 5; MgCl2, 1; HEPES, 10; Na2ATP, 4; GTP, 0.1; and is adjusted to pH 7.2 with KOH. The control bath solution contained (in mM): NaCl, 135; KCI, 5; sodium acetate, 2.8; MgCl2, 1; HEPES, 10; CaCl2, 1; and is adjusted to pH 7.4 with NaOH. The test ion channel modulating compound is dissolved to 10 mM stock solutions in water and used at concentrations between 0.5 and 100 μM.
(§3) Coverslips containing cells are removed from the incubator before experiments and placed in a superfusion chamber (volume 250 μl) containing the control bath solution at 22C to 23C. All recordings are made via the variations of the patch-clamp technique, using an Axopatch 200A amplifier (Axon Instruments, CA). Patch electrodes are pulled from thin-walled borosilicate glass (World Precision Instruments; FL) on a horizontal micropipette puller, fire-polished, and filled with appropriate solutions. Electrodes had resistances of […] when filled with control filling solution. Analog capacity compensation is used in all whole cell measurements. In some experiments, leak subtraction is applied to data. Membrane potentials have not been corrected for any junctional potentials that arose between the pipette and bath solution. Data are filtered at 5 to 10 kHz before digitization and stored on a microcomputer for later analysis using the pClamp6 software (Axon Instruments, Foster City, Calif.). Due to the high level of expression of channel cDNA's in HEK cells, there is no need for signal averaging. The average cell capacitance is quite small, and the absence of ionic current at negative membrane potentials allowed faithful leak subtraction of data.
(§4) The concentration-response curves for changes in peak and steady-state current produced by the test compound are computer-fitted to the Hill equation: f=1−1/[1+([…])^n] [1]
(§5) where f is the fractional current (f=Idrug/Icontrol) at drug concentration [D]; IC50 is the concentration producing half-maximal inhibition and n is the Hill coefficient.
(§6) Compounds of the present invention may be evaluated by this method. […] Block is determined from the decrease in peak hH1 Na^+ current, or in steady-state Kv1.5 and integrated Kv4.2 current in the presence of drug. To record Na^+ current, cells are depolarized from the holding potential of −100 mV to a voltage of −30 mV for 10 ms to fully open and inactivate the channel. To record Kv1.5 and Kv4.2 current, cells are depolarized from the holding potential of −80 mV to a voltage of +60 mV for 200 ms to fully open the channel. Currents are recorded in the steady-state at a range of drug concentrations during stimulation every 4 s. […]

Kv1.5 = biological target: T2, Kv1.5 (Homo sapiens, UniProt P22460); assay: Patch-clamp inhibition of cloned ion channel current in transfected HEK cells: Kv1.5; assay type: cell-based; conditions: steady-state current, -80 mV to +60 mV
T2 construct: expressed in transfected cells; host or cells: HEK cells, transient transfection, vector pCDNA3
Experimental: as §1, §2, §3, §4, §5, §6

Kv4.2 = biological target: T3, Kv4.2 (Homo sapiens, UniProt Q9NZV8); assay: Patch-clamp inhibition of cloned ion channel current in transfected HEK cells: Kv4.2; assay type: cell-based; conditions: integrated current, -80 mV to +60 mV
T3 construct: expressed in transfected cells; host or cells: HEK cells, transient transfection, vector pCDNA3
T3 sequence (Q9NZV8 1-630): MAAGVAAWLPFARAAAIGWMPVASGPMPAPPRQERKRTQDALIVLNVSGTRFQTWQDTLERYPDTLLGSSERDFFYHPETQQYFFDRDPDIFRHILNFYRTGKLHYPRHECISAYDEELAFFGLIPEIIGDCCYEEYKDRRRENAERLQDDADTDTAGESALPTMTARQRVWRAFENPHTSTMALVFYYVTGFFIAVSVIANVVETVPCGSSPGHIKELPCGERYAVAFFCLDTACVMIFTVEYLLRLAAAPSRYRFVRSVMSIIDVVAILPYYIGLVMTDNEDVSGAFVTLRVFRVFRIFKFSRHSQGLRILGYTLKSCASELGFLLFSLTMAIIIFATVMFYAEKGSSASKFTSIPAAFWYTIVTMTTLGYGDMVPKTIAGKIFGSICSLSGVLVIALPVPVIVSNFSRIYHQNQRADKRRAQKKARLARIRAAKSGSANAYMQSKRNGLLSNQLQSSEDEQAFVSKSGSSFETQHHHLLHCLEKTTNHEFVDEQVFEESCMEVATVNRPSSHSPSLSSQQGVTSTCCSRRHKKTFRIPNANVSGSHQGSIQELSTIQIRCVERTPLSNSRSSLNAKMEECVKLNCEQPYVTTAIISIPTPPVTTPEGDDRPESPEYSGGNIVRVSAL
Experimental: as §1, §2, §3, §4, §5, §6

HERG = biological target: T4, HERG (Homo sapiens, UniProt Q12809); assay: Patch-clamp inhibition of cloned ion channel current in transfected HEK cells: HERG; assay type: cell-based; conditions: whole-cell patch clamp
T4 construct: expressed in transfected cells; host or cells: HEK cells, transient transfection, vector pCDNA3
Experimental: as §1, §2, §3, §4, §5, §6

Mongrel dogs = assay: Canine vagal-AF model: termination of sustained atrial fibrillation; assay type: in vivo, dog; conditions: IV
Experimental: Mongrel dogs of either sex weighing 15-49 kg are anesthetized with morphine (2 mg/kg im initially, followed by 0.5 mg/kg IV every 2 h) and α-chloralose (120 mg/kg IV followed by an infusion of 29.25 mg/kg/h; St.-Georges et al., 1997). Dogs are ventilated mechanically with room air supplemented with oxygen via an endotracheal tube at 20 to 25 breaths/minute with a tidal volume obtained from a nomogram. […] Catheters are inserted into the femoral artery for blood pressure recording and blood gas measurement, and into both femoral veins for drug administration and venous sampling. Catheters are kept patent with heparinized 0.9% saline solution. Body temperature is maintained at 37-40° C. with a heating blanket. […] Drug effects to terminate sustained AF maintained during continuous vagal nerve stimulation are assessed. […] The vagal stimulation voltage is adjusted under control conditions, and then readjusted after each treatment to maintain the same bradycardic effect. […] Diastolic threshold current is determined at a basic cycle length of 300 ms by increasing the current 0.1 mA incrementally until stable capture is obtained. […] Atrial and ventricular ERP is measured with the extrastimulus method, over a range of S1S2 intervals at a basic cycle length of 300 ms. […] Diastolic threshold and ERP are determined in duplicate and averaged to give a single value. […]

[1] = indicates cardiac sodium channel blockade

T4 sequence (Q12809 whole entry): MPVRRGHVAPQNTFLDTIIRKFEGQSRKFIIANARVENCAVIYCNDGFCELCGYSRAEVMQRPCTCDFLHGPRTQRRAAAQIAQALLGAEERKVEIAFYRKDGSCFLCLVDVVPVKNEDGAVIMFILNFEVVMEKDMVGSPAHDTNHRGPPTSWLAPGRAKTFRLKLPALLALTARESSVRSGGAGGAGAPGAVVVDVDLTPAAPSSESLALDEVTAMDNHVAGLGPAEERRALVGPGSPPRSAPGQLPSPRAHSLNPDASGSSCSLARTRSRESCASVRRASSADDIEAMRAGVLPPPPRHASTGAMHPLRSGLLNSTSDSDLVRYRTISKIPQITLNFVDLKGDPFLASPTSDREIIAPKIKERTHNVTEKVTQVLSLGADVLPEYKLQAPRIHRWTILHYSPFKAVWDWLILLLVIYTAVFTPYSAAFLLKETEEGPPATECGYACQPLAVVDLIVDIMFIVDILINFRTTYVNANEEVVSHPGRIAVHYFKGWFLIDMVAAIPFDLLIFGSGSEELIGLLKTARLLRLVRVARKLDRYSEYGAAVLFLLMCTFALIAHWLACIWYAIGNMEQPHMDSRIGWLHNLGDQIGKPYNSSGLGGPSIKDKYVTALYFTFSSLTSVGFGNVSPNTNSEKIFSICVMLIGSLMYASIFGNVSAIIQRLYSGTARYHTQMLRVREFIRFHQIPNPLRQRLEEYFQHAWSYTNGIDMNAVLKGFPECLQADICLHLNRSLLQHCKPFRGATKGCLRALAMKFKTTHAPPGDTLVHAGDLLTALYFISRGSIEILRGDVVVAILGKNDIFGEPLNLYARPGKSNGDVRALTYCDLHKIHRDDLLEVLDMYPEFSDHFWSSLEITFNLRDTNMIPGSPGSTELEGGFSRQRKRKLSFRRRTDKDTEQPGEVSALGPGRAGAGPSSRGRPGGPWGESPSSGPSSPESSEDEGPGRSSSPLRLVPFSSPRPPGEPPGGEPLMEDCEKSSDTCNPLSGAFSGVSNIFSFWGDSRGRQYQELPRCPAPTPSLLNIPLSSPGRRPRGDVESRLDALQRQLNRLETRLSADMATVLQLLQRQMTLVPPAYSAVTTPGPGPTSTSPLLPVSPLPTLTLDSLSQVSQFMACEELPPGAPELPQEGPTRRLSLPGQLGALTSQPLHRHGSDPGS
T2 sequence (P22460 whole entry): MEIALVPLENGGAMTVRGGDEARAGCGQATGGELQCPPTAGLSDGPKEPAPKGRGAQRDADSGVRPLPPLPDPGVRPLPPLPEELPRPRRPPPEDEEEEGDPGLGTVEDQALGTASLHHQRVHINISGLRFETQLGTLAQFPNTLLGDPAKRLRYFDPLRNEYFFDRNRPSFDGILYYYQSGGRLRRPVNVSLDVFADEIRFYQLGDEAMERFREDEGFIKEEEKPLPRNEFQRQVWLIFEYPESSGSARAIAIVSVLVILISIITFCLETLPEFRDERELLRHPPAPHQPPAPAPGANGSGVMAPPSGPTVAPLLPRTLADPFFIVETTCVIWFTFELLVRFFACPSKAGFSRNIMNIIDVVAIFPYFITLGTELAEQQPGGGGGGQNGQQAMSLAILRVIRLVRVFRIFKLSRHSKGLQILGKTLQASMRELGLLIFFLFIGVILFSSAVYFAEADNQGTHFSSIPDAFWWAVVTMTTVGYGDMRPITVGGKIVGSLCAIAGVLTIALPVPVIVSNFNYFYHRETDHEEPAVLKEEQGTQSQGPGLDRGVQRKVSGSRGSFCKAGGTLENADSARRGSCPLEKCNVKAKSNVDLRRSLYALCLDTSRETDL
T1 sequence (Q14524 whole entry): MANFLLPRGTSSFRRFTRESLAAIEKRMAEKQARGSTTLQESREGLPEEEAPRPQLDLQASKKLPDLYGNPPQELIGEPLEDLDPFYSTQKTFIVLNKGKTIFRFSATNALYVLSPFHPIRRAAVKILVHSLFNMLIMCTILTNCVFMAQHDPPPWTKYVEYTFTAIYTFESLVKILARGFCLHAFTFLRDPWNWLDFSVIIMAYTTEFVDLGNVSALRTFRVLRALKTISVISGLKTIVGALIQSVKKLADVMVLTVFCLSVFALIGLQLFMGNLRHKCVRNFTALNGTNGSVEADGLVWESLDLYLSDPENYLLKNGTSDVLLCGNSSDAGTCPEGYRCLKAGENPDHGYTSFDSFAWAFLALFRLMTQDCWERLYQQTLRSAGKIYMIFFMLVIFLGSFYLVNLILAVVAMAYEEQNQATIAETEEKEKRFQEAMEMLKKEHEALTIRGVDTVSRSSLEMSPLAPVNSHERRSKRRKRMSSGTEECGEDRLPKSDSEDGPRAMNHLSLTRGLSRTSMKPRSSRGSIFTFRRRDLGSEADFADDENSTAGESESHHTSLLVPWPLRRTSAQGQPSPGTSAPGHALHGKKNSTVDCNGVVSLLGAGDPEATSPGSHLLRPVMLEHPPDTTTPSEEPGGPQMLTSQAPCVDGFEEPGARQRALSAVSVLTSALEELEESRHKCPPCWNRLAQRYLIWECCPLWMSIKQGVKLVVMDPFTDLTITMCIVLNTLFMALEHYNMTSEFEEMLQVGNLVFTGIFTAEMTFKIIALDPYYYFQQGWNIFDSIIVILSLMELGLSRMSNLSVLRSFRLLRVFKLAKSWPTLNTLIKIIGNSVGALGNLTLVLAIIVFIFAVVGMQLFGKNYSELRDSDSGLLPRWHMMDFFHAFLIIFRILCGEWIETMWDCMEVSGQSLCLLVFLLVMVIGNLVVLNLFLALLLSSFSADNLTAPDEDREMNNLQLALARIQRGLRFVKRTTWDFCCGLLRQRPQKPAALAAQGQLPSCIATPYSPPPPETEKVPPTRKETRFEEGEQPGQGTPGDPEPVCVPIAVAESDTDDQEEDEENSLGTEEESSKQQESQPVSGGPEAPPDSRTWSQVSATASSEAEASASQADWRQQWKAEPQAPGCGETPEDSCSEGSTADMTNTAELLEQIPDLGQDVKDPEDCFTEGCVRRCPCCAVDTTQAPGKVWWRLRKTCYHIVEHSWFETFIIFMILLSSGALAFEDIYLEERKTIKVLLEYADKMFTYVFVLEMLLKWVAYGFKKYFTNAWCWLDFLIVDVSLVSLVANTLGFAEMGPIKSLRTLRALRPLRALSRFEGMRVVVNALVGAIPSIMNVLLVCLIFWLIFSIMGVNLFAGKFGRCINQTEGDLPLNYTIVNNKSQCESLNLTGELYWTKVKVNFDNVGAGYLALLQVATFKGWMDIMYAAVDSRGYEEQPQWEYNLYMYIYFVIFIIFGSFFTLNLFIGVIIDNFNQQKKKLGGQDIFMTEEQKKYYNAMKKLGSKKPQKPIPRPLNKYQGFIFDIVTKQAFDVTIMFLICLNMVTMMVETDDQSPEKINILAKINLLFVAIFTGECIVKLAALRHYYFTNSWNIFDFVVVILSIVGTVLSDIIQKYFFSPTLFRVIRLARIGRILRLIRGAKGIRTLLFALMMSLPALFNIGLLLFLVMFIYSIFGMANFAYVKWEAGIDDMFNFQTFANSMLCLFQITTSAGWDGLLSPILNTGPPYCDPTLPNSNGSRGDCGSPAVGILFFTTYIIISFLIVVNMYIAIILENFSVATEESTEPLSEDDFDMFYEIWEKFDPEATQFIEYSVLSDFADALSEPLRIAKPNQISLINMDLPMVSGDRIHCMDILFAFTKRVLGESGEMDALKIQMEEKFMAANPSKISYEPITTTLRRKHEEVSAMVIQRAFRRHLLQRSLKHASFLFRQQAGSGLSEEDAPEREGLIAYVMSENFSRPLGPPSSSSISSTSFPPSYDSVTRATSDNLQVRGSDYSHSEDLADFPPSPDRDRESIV

For `Cc1cn2cccc(OCCCc3ccc(Cl)cc3Cl)c2n1` (as salt: hydrochloride) [Compound 1, 8-[3-(2,4-DICHLOROPHENYL)PROPOXY]-2-METHYLIMIDAZO[1,2-α]PYRIDINEMONOHYDROCHLORIDE], the melting point was < 193 °C.
For `Cc1cn2cccc(OCCCc3ccc(Cl)cc3Cl)c2n1` [Compound 1, 8-[3-(2,4-DICHLOROPHENYL)PROPOXY]-2-METHYLIMIDAZO[1,2-α]PYRIDINEMONOHYDROCHLORIDE], the “D25 QT (dose required to produce a 25% increase in Q-T interval)” value (Sprague Dawley rats; indicates cardiac potassium channel blockade) was 8 µmol/kg, the “D25 PR (dose required to produce a 25% increase in P-R interval)” value (Sprague Dawley rats; [1]) was 14 µmol/kg and the “D25 QRS (dose required to produce a 25% increase in QRS interval)” value (Sprague Dawley rats; [1]) was 12 µmol/kg. For the same compound, the “ED50 for pain blockade” value (CD-1 mice) was 0.073 mg/tail, the IC50 (hH1 Na+ current) was 8000 nM and the IC50 (Kv1.5) was 300 nM. For the same compound, the IC50 (Kv4.2) was 2000 nM and the IC50 (HERG) was 100 nM.
In the case of `O=C(NCC1CCCCN1)c1cc(OCC(F)(F)F)ccc1OCC(F)(F)F` (centres unmarked) [Flecainide], the “Median dose required for termination of AF” value (Mongrel dogs) is reported as 2.5 µmol/kg and the “Mean dose required for termination of AF” value (Mongrel dogs; mean ±SEM) is reported as 4 ± 2 µmol/kg.
